# Laboratory results as given in paper PMC12042115 (mLife, 2025).
# Assays:
# [1] = Hydrolysis in protein‐free buffer (data not published); type: physicochemical; conditions: over time
# [2] = system: GH200 (scrambled sgRNA control); type: cell-based, M. bovis BCG
# [3] = system: M. tuberculosis H37Rv; parameters: method as in PubChem; conditions: ref PubChem; cited from earlier work
structure (smiles),measurement,setting,value
O=C(Oc1ccc(Cl)cc1)c1ccc(N2CCOCC2)c([N+](=O)[O-])c1 [GDI‐5755],stability in protein‐free buffer,[1],susceptible to hydrolysis
same,MIC shift against GH200 on ATc induction,[2],did not show shifting
same,"MIC against H37Rv, reported",[3],3.16 µM
